Test results published in patent US20050049294A1, “Methods of using [3.2.0] heterocyclic compounds and analogs thereof” (priority 2003, published 2005).
Like-named read-outs stand apart in the source and are kept apart here. Peptide text beside a SMILES is read from it. * marks the point of attachment. Cbz = O=C(OCc1ccccc1)*

What was measured:
HL-60/MX2 cells = assay: cells; conditions: for EC50: Homo sapiens, HL60/MX2, read-out: EC50 (nM) HL-60/MX2, Table 17
Source text: (§1) The DNA binding agent Mitoxantrone was included as a control, as HL-60/MX2 cells are reported to be resistant to this chemotherapeutic agent (Harker W. G. et al. 1989).

Jurkat cells = assay: Cytotoxicity against Jurkat cells; assay type: cell-based, human; conditions: Table 5, Jurkat Cells
HL-60 cells = assay: Cell growth inhibition (resazurin, 48 hours), HL-60
Source text: as §1

[1] = test system: LeTx-induced cytotoxicity of RAW264.7 cells; assay: cells; conditions: Mus musculus, RAW264.7, read-out: EC50 (nM), inhibition of RAW 264.7 cell cytotoxicity mediated by anthrax lethal toxin
HT-29 cells = assay: Cell growth inhibition (resazurin, 48 hours), HT-29; assay type: cell-based; conditions: Homo sapiens, HT-29
MES-SA/Dx5 cells = assay: cells; conditions: Homo sapiens, MES-SA/Dx5, read-out: EC50 (nM) MES-SA/Dx5, Table 16
[2] = target: T1, trypsin-like activity of purified rabbit 20S proteasomes (Oryctolagus cuniculus, UniProt G1SWK8); conditions: under the conditions tested
T1 sequence (G1SWK8 1-271): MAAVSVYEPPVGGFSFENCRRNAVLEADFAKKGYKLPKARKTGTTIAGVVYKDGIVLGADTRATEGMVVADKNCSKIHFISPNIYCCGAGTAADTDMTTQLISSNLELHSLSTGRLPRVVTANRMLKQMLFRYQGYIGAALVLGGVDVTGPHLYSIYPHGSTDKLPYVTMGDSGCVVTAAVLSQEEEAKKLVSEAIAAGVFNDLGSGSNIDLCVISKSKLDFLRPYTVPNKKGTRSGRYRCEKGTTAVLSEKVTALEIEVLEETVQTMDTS

MDA-MB-231 cells = assay: Cell growth inhibition (resazurin, 48 hours), MDA-MB-231; assay type: cell-based; conditions: Homo sapiens, MDA-MB-231
[3] = test system: NF-κB-mediated luciferase activity in HEK293 NF-κB/Luc cells; assay: NF-κB-mediated luciferase reporter gene assay; assay type: cell-based, human; conditions: for luciferase activity upon TNF-α stimulation: pretreatment of NF-κB/Luc 293 cells
Description: (§2) The HEK293 NF-κB/luciferase reporter cell line is a derivative of the human embryonic kidney cell line (ATCC; CRL- 1573) and carries a luciferase reporter gene under the regulation of 5×NF-κB binding sites. […] When performing the luciferase assay, the DMEM basal medium was replaced with phenol-red free DMEM basal medium and the G418 was omitted.
For NF-κB-mediated luciferase assays, HEK293 NF-κB/luciferase cells were seeded at 1.5×10^4 cells/well in 90 μl phenol-red free DMEM complete medium into Corning 3917 white opaque-bottom tissue culture plates. […] This dilution series was further diluted 40× in appropriate culture medium and ten μl aliquots were added to the test wells in triplicate resulting in final test concentrations ranging from 1 μM to 320 pM. […] For Formula II-19, a 127 μM starting dilution was made in 100% DMSO and the final test concentrations ranging from 317 nM to 0.1 nM. […] After 1 hr pretreatment, 10 μl of a 50 ng/ml TNF-α solution, prepared in the phenol-red free DMEM medium was added, and the plates were incubated for an additional 6 hr.
NF-κB inducible luciferase activity was measured at 6 hours.
as §2, with “CRL-1573)” for “CRL- 1573)”
For NF-κB-mediated luciferase assays, HEK293 NF-κB/luciferase cells were seeded at 1.5×10^4 cells/well in 90 μl phenol-red free DMEM complete medium into Corning 3917 white opaque-bottom tissue culture plates. For Formula II-2, Formula II-4 and Formula II-5A, a 400 μM starting dilution was made in 100% DMSO and this dilution was used to generate a 8-point half log dilution series. This dilution series was further diluted 40× in appropriate culture medium and ten μl aliquots were added to the test wells in triplicate resulting in final test concentrations ranging from 1 μM to 320 pM. […] After 1 hr pretreatment, 10 μl of a 50 ng/ml TNF-α solution, prepared in the phenol-red free DMEM medium was added, and the plates were incubated for an additional 6 hr.
The relative luciferase units (RLU) were measured by using a Fusion microplate fluorometer (Packard Bioscience).

[4] = target: T1, trypsin-like activity of purified rabbit 20S proteasomes; assay: biochemical
OVCAR-3 cells = assay: Cell growth inhibition (resazurin, 48 hours), OVCAR-3; assay type: cell-based, human; conditions: Homo sapiens, OVCAR-3, Table 13; OVCAR-3
PC-3 cells = assay: Cell growth inhibition (resazurin, 48 hours), PC-3; assay type: cell-based, human; conditions: Homo sapiens, PC-3
MES-SA cells = assay: Cell growth inhibition (resazurin, 48 hours), MES-SA; conditions: Homo sapiens, MES-SA, read-out: EC50 (nM) MES-SA, Table 16
NCI-H292 cells = assay: Cell growth inhibition (resazurin, 48 hours), NCI-H292; assay type: cell-based, human; conditions: Homo sapiens, NCI-H292
[5] = target: T2, chymotrypsin-like activity of rabbit muscle 20S proteasomes (Oryctolagus cuniculus, UniProt G1T4Q9); assay: Inhibition of chymotrypsin-like activity of purified rabbit muscle 20S proteasome (suc-LLVY-AMC); assay type: biochemical
T2 sequence (G1T4Q9 1-263): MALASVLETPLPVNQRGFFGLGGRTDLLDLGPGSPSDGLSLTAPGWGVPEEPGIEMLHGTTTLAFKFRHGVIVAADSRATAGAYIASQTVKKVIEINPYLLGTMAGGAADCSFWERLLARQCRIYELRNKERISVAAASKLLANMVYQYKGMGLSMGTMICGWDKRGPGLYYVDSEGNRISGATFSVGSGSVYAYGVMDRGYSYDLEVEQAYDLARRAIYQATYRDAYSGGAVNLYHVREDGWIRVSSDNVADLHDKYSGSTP
Description: This peptide substrate is specific for the chymotrypsin-like enzyme activity of the proteasome.
Omuralide was prepared as a 10 mM stock in DMSO and stored in 5 μL aliquots at −80° C. […] The assay measures the hydrolysis of Suc-LLVY-AMC into Suc-LLVY and AMC. The released coumarin (AMC) was measured fluorometrically by using λex=390 nm and λem=460 nm. The assays were performed in a microtiter plate (Corning 3904), and followed kinetically with measurements every five minutes. The instrument used was a Thermo Lab Systems Fluoroskan, with the incubation chamber set to 37° C. The assays were performed according to the manufacturer's protocol, with the following changes. The proteasome was activated as described with SDS, and held on ice prior to the assay. […] Ten microliters of each dose were added in triplicate to the assay plate, and 190 μL of the activated proteasome was added and mixed. The samples were pre-incubated in the Fluoroskan for 5 minutes at 37° C. Substrate was added and the kinetics of AMC were followed for one hour.

[6] = test system: LeTx-induced cytotoxicity of RAW264.7 cells; conditions: 1 μM
[7] = test system: LeTx-induced cytotoxicity of RAW264.7 cells; conditions: read-out: EC50 concentrations in the LeTx assay; cited from earlier work
RPMI 8226 cells = assay: Cell growth inhibition (resazurin, 48 hours), RPMI 8226
[8] = target: PGPH (caspase-like) activity of rabbit muscle 20S proteasomes (Oryctolagus cuniculus, UniProt A0A5F9DQW2); assay: Inhibition of caspase-like (PGPH) activity of 20S proteasome (Z-LLE-AMC); assay type: biochemical; conditions: Table 3; mean EC50; purified rabbit 20S proteasomes
Description: A commercially available fluorogenic substrate specific for the PGPH activity was used instead of the chymotrypsin substrate supplied in the proteasome assay kit described above.
The substrate Z-LLE-AMC was prepared as a 20 mM stock solution in DMSO, stored at −20° C. The source of the proteasomes was the commercially available kit from Calbiochem (Cat. #539158). As with the chymotrypsin substrate, the proteasome can cleave Z-LLE-AMC into Z-LLE and free AMC. The activity can then be determined by measuring the fluorescence of the released AMC (λex=390 nm and λem=460 nm). The proteasomes were activated with SDS and held on ice as per manufacturer's recommendation. […] The series was diluted 20-fold with assay buffer and preincubated with the proteasomes as described for the chymotrypsin-like activity. After addition of substrate, the samples were incubated at 37° C., and release of the fluorescent AMC was monitored in a fluorimeter. All data were collected and plotted as the mean of triplicate points. […] As before, the model chosen was a sigmoidal dose-response, with a variable slope.

U266 cells = assay: Cell growth inhibition (resazurin, 48 hours), U266
B16-F10 cells = assay: Cell growth inhibition (resazurin, 48 hours), B16-F10; assay type: cell-based, mouse; conditions: Mus musculus, B16-F10, Table 13; B16-F10
[9] = Homo sapiens, HL-60, read-out: EC50 (nM) HL-60, Table 17
[10] = Table 3, mean EC50, purified rabbit 20S proteasomes, read-out: EC50 Values, Chymotrypsin-like
[11] = representative experiment, Example 44 (FIG. 46, 47), read-out: EC50, chymotrypsin-like activity of the proteasome
[12] = Homo sapiens, RPMI-8226, Table 13, RPMI 8226
[13] = Homo sapiens, U-266, Table 13, U266

Chain of PGPH (caspase-like) activity of rabbit muscle 20S proteasomes (A0A5F9DQW2 1-212): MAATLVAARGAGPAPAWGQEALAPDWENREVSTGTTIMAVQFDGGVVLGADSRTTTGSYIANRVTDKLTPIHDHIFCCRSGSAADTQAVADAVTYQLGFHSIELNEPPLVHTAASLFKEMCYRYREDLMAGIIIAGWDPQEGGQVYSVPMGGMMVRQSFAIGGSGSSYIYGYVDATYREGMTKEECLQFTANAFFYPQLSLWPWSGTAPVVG

For `O=C1c2c(O)ccc(O)c2C(=O)c2c(NCCNCCO)ccc(NCCNCCO)c21` [Mitoxantrone, reference compound], the EC50 (HL-60/MX2 cells) was 1340 nM, the Fold change (HL-60/MX2 cells; Table 17, ratio of EC50 values (HL-60/MX2:HL-60)) was 30.6 fold and the EC50 (Jurkat cells; Homo sapiens, read-out: EC50) was 50 nM. For the same compound, the “% max cell kill” value (Jurkat cells) was 99%, the EC50 (HL-60 cells; [9]) was 42 nM and the EC50 (HL-60 cells; read-out: EC50 (nM) HL-60, Table 17) was 40 nM.

In the case of `CC[C@H]1C(=O)N[C@@]2([C@@H](O)[C@@H]3C=CCCC3)C(=O)O[C@@]12C` [Formula II-17], the EC50 [1] is reported as 42 nM, the EC50 (HT-29 cells) is reported as greater than 20000 nM and the EC50 (MES-SA/Dx5 cells) is reported as 9450 nM. The “inhibit the trypsin-like activity of the 20S proteasome” value (“inhibit the trypsin-like activity” for short) [2] was “able to inhibit”, the EC50 (MDA-MB-231 cells) was 5900 ± 601 nM and the “luciferase activity upon TNF-α stimulation” value [3] was “dose-dependent decrease”. It also gave an EC50 [4] of 588 nM, an EC50 (OVCAR-3 cells) greater than 20000 nM and an EC50 (HL-60/MX2 cells) greater than 20000 nM. For the same compound, the EC50 (HL-60 cells; [9]) was greater than 20000 nM, the EC50 (PC-3 cells) was greater than 20000 nM and the EC50 (MES-SA cells) was 9230 nM. It also gave an EC50 (NCI-H292 cells; NCI-H292, Table 13) greater than 20000 nM.

For `CC(C)[C@H](O)[C@@]12NC(=O)[C@H](C)[C@@H]1OC2=O` [Omuralide, reference compound], the EC50 ([5]; Calbiochem 20S Proteasome Kit, Example 21, read-out: average EC50 in the two assays, chymotrypsin-like activity) was 52 nM, the EC50 ([5]; first experiment, Example 21, read-out: EC50, average value in the 20S proteasome assay (FIG. 27)) was 49 nM and the “viability, compound + LeTx” value [6] was 37%.

In the case of `CC(C)C[C@@H](C=O)NC(=O)[C@H](CC(C)C)NC(=O)[C@H](CC(C)C)NC(=O)OCc1ccccc1` [MG132] (Cbz-Leu-Leu-Leu-aldehyde), the EC50 [7] is listed as 3000 nM.

Work on `C[C@@]12OC(=O)[C@]1([C@@H](O)[C@H]1CCC[C@H]3O[C@@H]13)NC(=O)[C@@H]2CCCl` [Formula II-5A] yielded an EC50 [5, 10] of 6.5 nM, an EC50 [5, 11] of 6 nM and an EC50 [1] of 3 nM. The EC50 (HT-29 cells; Table 13, read-out: EC50) was 85 nM, the “inhibit the trypsin-like activity” value [2] was “able to inhibit” and the EC50 (MDA-MB-231 cells; Table 13, read-out: EC50) was 66 nM. For the same compound, the EC50 (RPMI 8226 cells; [12]) was 36 nM, the EC50 (RPMI 8226 cells; Homo sapiens, RPMI-8226, read-out: RPMI 8226 EC50 (nM), Table 15, mean EC50) was 33 nM and the EC50 (RPMI 8226 cells; Table 13, RPMI 8226) was 29 nM. The EC50 ([3]; Homo sapiens, HEK293, representative experiment, Example 43 (FIG. 44, 45), read-out: calculated EC50 to inhibit NF-κB inducible luciferase activity) was 30 nM, the “luciferase activity upon TNF-α stimulation” value [3] was “dose-dependent decrease” and the EC50 [4] was 89 nM. For the same compound, the EC50 [8] was 487 nM, the EC50 (PC-3 cells; Table 13, read-out: EC50) was 97 nM and the EC50 (NCI-H292 cells; Table 13, read-out: EC50) was 90 nM. The EC50 (U266 cells; [13]) was 10 nM, the EC50 (U266 cells; Homo sapiens, U-266, read-out: U266 EC50 (nM), Table 15, mean EC50) was 10 nM and the EC50 (U266 cells; Table 13, U266) was 9 nM.

In the case of `CC(=O)N[C@@H](CSC(=O)[C@]1([C@@H](O)C(C)C)NC(=O)[C@H](C)[C@@H]1O)C(=O)O` [Lactacystin], the EC50 [7] is given as 3000 nM.

Compound `CC[C@H]1C(=O)N[C@@]2([C@@H](O)C3CCCCC3)C(=O)O[C@@]12C` [Formula II-3] has an EC50 [5, 10] of 927 nM, an EC50 [5, 11] of 890 nM and an EC50 [1] greater than 330 nM. The EC50 (HT-29 cells) was greater than 20000 nM, the EC50 (MES-SA/Dx5 cells) was greater than 20000 nM and the “inhibit the trypsin-like activity” value [2] was “able to inhibit”. The EC50 (MDA-MB-231 cells) was greater than 20000 nM, the EC50 (RPMI 8226 cells; [12]) was greater than 20000 nM and the EC50 [4] was 6600 nM. It also gave an EC50 (OVCAR-3 cells) greater than 20000 nM, an EC50 (B16-F10 cells) greater than 20000 nM and an EC50 [8] greater than 20000 nM. It also gave an EC50 (HL-60/MX2 cells) greater than 20000 nM, an EC50 (HL-60 cells; [9]) greater than 20000 nM and an EC50 (PC-3 cells) greater than 20000 nM. For the same compound, the EC50 (MES-SA cells) was greater than 20000 nM, the EC50 (NCI-H292 cells; NCI-H292, Table 13) was greater than 20000 nM and the EC50 (U266 cells; [13]) was greater than 20000 nM.
